Here are results for 31 molecules from US7189680B2, “5-halo-6-aryl[1,2,4]triazolo[1,5-a]pyrimidin-7-amines” (Bayer Cropscience AG, priority 2001, dated 2007).

The logP is the decadic logarithm of the partition coefficient of the neutral form, usually between octanol and water. A high value points to a more lipophilic compound.

A short description of the first series: logP determination by HPLC (EEC directive 79/831 Annex V. A8). The class given is physicochemical. The note with it: HPLC gradient method, acetonitrile/0.1% aqueous phosphoric acid; Table 1. The procedure: *) The logP values were determined in accordance with EEC directive 79/831 Annex V. A8 by HPLC (gradient method, acetonitrile/0.1% aqueous phosphoric acid)
Turning to `Fc1cc(F)c(-c2c(Cl)nc3ncnn3c2NOCc2cc(Cl)cc(Cl)c2)c(F)c1` [Example 80], the “logP*” value is listed as 3.73.

`CC(C)CN(N)c1c(-c2cc(C(F)(F)F)ccc2C(F)(F)F)c(Cl)nc2ncnn12` [Example 137]: the “logP*” value is on record as 3.57.

Regarding `CCC(C)NNc1c(-c2cc(C(F)(F)F)ccc2Cl)c(Cl)nc2ncnn12` (stereo not shown) [Example 147], the “logP*” value came out at 3.95.

With `COCCN(N)c1c(-c2c(F)cc(F)cc2F)c(Cl)nc2ncnn12` [Example 128], the “logP*” value is recorded as 2.26.

Regarding `Fc1ccccc1-c1c(Cl)nc2ncnn2c1NOCc1c(Cl)cccc1Cl` [Example 101], the “logP*” value is 3.3.

On to `CCC(C)ONc1c(-c2c(F)c(F)c(F)c(F)c2F)c(Cl)nc2ncnn12` (stereo not shown) [Example 73], for which the “logP*” value worked out at 3.33.

Regarding `CCCCONc1c(-c2ccccc2F)c(Cl)nc2ncnn12` [Example 100], the “logP*” value is given as 2.85.

For `Fc1cccc(F)c1-c1c(Cl)nc2ncnn2c1NOCc1ccc(Cl)cc1` [Example 47], the “logP*” value is 3.14.

With `CCCCONc1c(-c2c(F)cc(F)cc2F)c(Cl)nc2ncnn12` [Example 85], the “logP*” value was 3.01.

With `CC(C)CN(N)c1c(-c2ccc(F)cc2Cl)c(Cl)nc2ncnn12` [Example 172], the “logP*” value is given as 3.15.

As to `NN(CC1CC1(Cl)Cl)c1c(-c2c(F)cc(F)cc2F)c(Cl)nc2ncnn12` (stereo not shown) [Example 166], the “logP*” value came out at 3.11.

In the case of `C=CCONc1c(-c2ccccc2F)c(Cl)nc2ncnn12` [Example 64], the “logP*” value worked out at 2.27.

For `Fc1cc(F)c(-c2c(Cl)nc3ncnn3c2NOCc2cccc(Cl)c2)c(F)c1` [Example 82], the “logP*” value was determined as 3.27.

For the molecule `CCCCONc1c(-c2c(F)cccc2F)c(Cl)nc2ncnn12` [Example 109], the “logP*” value is 2.83.

As to `Fc1cccc(F)c1-c1c(Cl)nc2ncnn2c1NOCc1cc(Cl)cc(Cl)c1` [Example 104], the “logP*” value is reported as 3.63.

As for `Fc1c(F)c(F)c(-c2c(Cl)nc3ncnn3c2NOCc2cc(Cl)cc(Cl)c2)c(F)c1F` [Example 113], the “logP*” value was found to be 4.07.

On to `CONc1c(-c2c(F)cc(F)cc2F)c(Cl)nc2ncnn12` [Example 31], for which the “logP*” value amounted to 2.12.

With `CCC(C)N(N)c1c(-c2c(F)cc(F)cc2F)c(Cl)nc2ncnn12` (stereo not shown) [Example 139], the “logP*” value came out at 2.93.

`Clc1cccc(Cl)c1-c1c(Cl)nc2ncnn2c1NNC1CCCC1` [Example 160]: the “logP*” value worked out at 3.21.

Regarding `C=CCONc1c(-c2c(F)c(F)c(F)c(F)c2F)c(Cl)nc2ncnn12` [Example 74], the “logP*” value is 2.89.

For `CC1(NNc2c(-c3c(F)cc(F)cc3F)c(Cl)nc3ncnn23)CCCCC1` [Example 27], the “logP*” value is recorded as 3.68.

For `NN(CC1CCC1)c1c(-c2c(F)cccc2Cl)c(Cl)nc2ncnn12` [Example 173], the “logP*” value turned out to be 3.07.

Take `Fc1ccccc1-c1c(Cl)nc2ncnn2c1NOCc1ccc(Cl)cc1` [Example 61]: the “logP*” value is reported as 3.16.

Regarding `Fc1cccc(F)c1-c1c(Cl)nc2ncnn2c1NOCc1cccc(Cl)c1` [Example 46], the “logP*” value is 3.12.

For `CCONc1c(-c2c(F)c(F)c(F)c(F)c2F)c(Cl)nc2ncnn12` [Example 70], the “logP*” value worked out at 2.73.

On to `NN(c1c(-c2c(F)cc(F)cc2F)c(Cl)nc2ncnn12)C1CCCCCC1` [Example 141], for which the “logP*” value is 3.66.

Regarding `NN(CC1CC1)c1c(-c2c(Cl)cccc2Cl)c(Cl)nc2ncnn12` [Example 164], the “logP*” value stood at 2.8.

`CC(C)(C)ONc1c(-c2ccccc2F)c(Cl)nc2ncnn12` [Example 65]: the “logP*” value is reported as 2.58.

Regarding `CC(C)CN(N)c1c(-c2c(F)cc(F)cc2F)c(Cl)nc2ncnn12.Cl` [Example 153], the “logP*” value is reported as 2.88.

The series is the same for the next values; noted with them: HPLC gradient method, acetonitrile/0.1% aqueous phosphoric acid; Table 1; read-out: logP*.
Regarding `C=CCNNc1c(-c2c(F)cc(F)cc2F)c(Cl)nc2ncnn12` [Example 24], the chromatographic logP worked out at 2.48.

Staying with this series, now noted: Table 2, carbamates of formula (VIII).
`C=C(C)CN(OC)C(=O)OCC` [Example 179] displayed a logP of 2.06.
